Test results from patent US20040054130A1, “Insulin potentiating peptides” (priority 2000, published 2004).
Square brackets hold non-standard residues; d marks the D form. Ends that are not written are not given here. Cha = N[C@@H](CC1CCCCC1)C(=O)O; Orn = NCCC[C@H](N)C(=O)O; βAla = NCCC(=O)O

What was measured:
[1] = tested on: Zucker (fa/fa) rat hemidiaphragm muscle; test: In vitro glycogen synthesis (glucose incorporation into glycogen) in hemidiaphragm muscle with exogenous insulin; format: cell-based; parameters: key to Activity: insulin-potentiating: improved activity compared to insulin alone; inactive: equal activity compared to insulin alone; insulin antagonist: reduced activity compared to insulin alone; *-**: increasing insulin-potentiating activity; details: for insulin-potentiating activity on in vitro glycogen synthesis (in words): with 1 mU/ml exogenous insulin
Protocol: In vitro insulin-potentiating effects of the synthetic peptide analogues were assessed by measuring the rates of exogenous glucose incorporation into glycogen in rat hemidiaphragms (Lim et al, 1992). Hemidiaphragms from overnight-fasted Zucker fatty(fa/fa) female rats were dissected, and divided into segments of approximate 35-50 mg each. Tissues from the same rat were used for all groups. The tissue was incubated in 2 ml of Krebs-Ringer bicarbonate (KRB) buffer (pH 7.4) containing [^14C]glucose (5.5 mM, final specific activity 0.05 mCi/mmol) under an atmosphere of 95% 02-5% CO2 at 37° C. for 1.5 hr. After incubation, tissues were removed, washed with cold buffer and blotted. Tissues were digested, the muscle glycogen was precipitated and the ^14C-radioactivity was counted in a Wallac 1410 liquid scintillation counter. The biological activity of peptide analogues was measured as the rate of mmol glucose incorporation into muscle glycogen/g tissue/hr.
The sensitivity of hemidiaphragm muscle tissue to insulin (0.1-100 mU/ml) on glycogen synthesis was first analyzed. The dose response curves for peptide analogues on the insulin-potentiating effect to glycogen synthesis were then measured using cumulative increasing concentrations (10^−3 10 μmol/ml) of peptides in the presence of insulin (1 mU/ml). The biological activity of each peptide analogue was measured as the rate of glucose incorporation into muscle glycogen (μmol/g tissue/hr), and represented by the mean±SEM from eight determinations.
To determine the insulin-potentiating effect of the peptide analogues, the rates of incorporation of glucose into muscle glycogen were measured. The rates of glycogen synthesis (μmol/g tissue/hr) were 0.52±0.05, 0.60±0.04, 1.27±0.06 and 1.52±0.07 inresponse to 0.33, 1, 3.33 and 10 mU/ml insulin respectively, as shown in FIG. 1.
The insulin-potentiating effect of the peptide analogues was then observed by studying their dose response. curves for glucose incorporation into glycogen in the presence of 1 mU/ml exogenous insulin. The effects of peptides 1, 3, 4, 6, 7, 8 and 10 were evident at doses higher than 0.01 μmol/ml, and continued to increase with increasing peptide concentration to 1 μmol/ml, as shown in FIGS. 2A and 2B.
The activity of each analogue was assessed by in vitro measurement of glycogen synthesis in muscle, as described above.

[2] = tested on: Zucker fatty (fa/fa) rats; test: Basal blood glucose determination after i.p. peptide; format: in vivo, rat; details: 10 μmol/kg body weight i.p., over 150 min, vs saline
Protocol: Overnight-fasted Zucker fatty(fa/fa) female rats were anaesthetized with sodium pentobarbitone (60 mg/kg body weight). After 45 min, basal blood glucose samples were taken from the tail vein, followed immediately by intraperitoneal (i.p.) injection of saline (control) or the peptide analogue (test, 10 μmol/kg body weight) in 0.4 ml of saline. Blood samples were taken at 15, 30, 60, 90, 120, 150 minutes after injection, and the blood glucose level in each sample was measured immediately by the glucose oxidase method, using a YSI Model-2300 STAT glucose analyzer (Yellow Spring, Ohio). Six animals for each group were used.
The reduction of basal blood glucose levels in animals by different peptide analogues administered intraperitoneally (i.p.)at a dose of 10 μmol/kg body weight was measured for over 150 min.

normal male Wistar rats = test: Intravenous insulin tolerance test (IVITT); format: in vivo, rat; details: 5 μmol/kg i.v.; for insulin-potentiating effect on decreasing blood glucose in IVITT (in words): from 30 min after commencement; for Reduction in Blood Glucose: 0.1 U insulin/kg
Protocol: IVITTs (0.1 U insulin/kg body weight) were performed on overnight-fasted Wistar male rats as previously described (Lim et al, 1992). Blood samples were taken for glucose estimation at 15, 30, 45, 60 min after the commencement of the tests. Six animals in each group were used.
IVITTs were performed on normal male Wistar rats after a single intravenous (i.v.) injection of the hGH peptide analogues at a dose of 5 μmol/kg body weight. The insulin-potentiating effects of peptides 6, 7, 8 and 10 on decreasing blood glucose levels of treated animals became significant since 30 min after the commencement of the test. Bioactivity was retained when the Arg^8 or Phe^10 residue of Asu^11-hGH(6-13) peptide was substituted with Lys or Tyr respectively (1.92±0.17 or 1.62±0.18 vs. 1.65±0.12 mmol/L at 45 min), as shown in Table 3. However, no insulin-potentiating effect was observed when either Arg^8 or Phe^10 was substituted by Gly (0.92±0.08 or 1.08±0.08 mmol/L respectively vs. 1.00±0.10 mmol/L of control at 45 min). Asu^11-hGH(8-13) also elicited this insulin-potentiating effect, but with lower potency.

[3] = Table 5, compared to insulin alone
[4] = Table 6 (corrected), summary of Table 5

Substance: Ala-Gly-Phe-Phe (AGFF-NH2) [Peptide 12]
- Activity [1, 3]: inactive

Substance: Arg-Ala-Phe-Phe-NH2 (RAFF-NH2) [Peptide 13]
- Activity [1, 3]: inactive
- Activity [1, 4]: inactive

Substance: Arg-D-Ala-Phe-Tyr-NH2 (R[dA]FY-NH2; N-terminus assumed; SMILES C[C@@H](NC(=O)[C@@H](N)CCCNC(=N)N)C(=O)N[C@@H](Cc1ccccc1)C(=O)N[C@@H](Cc1ccc(O)cc1)C(N)=O) [Peptide 22]
- Activity [1, 4]: active

Substance: Arg-D-Ala-Phe-Tyr-me-NH2 (R[dA]FY-NH2; also: 'me' (methyl) after Tyr, site not settled) [Peptide 23]
- Activity [1, 4]: active

Substance: Arg-D-Ala-Tyr-Phe-NH2 (R[dA]YF-NH2; N-terminus assumed; SMILES C[C@@H](NC(=O)[C@@H](N)CCCNC(=N)N)C(=O)N[C@@H](Cc1ccc(O)cc1)C(=O)N[C@@H](Cc1ccccc1)C(N)=O) [Peptide 24]
- Activity [1, 4]: active

Substance: Arg-Gly-Ala-Phe-NH2 (RGAF-NH2) [Peptide 14]
- Activity [1, 3]: inactive
- Activity [1, 4]: inactive

Substance: Arg-Gly-Phe-Ala-NH2 (RGFA-NH2) [Peptide 15]
- Activity [1, 3]: inactive
- Activity [1, 4]: inactive

Substance: Arg-Gly-Phe-Cha-NH2 (RGF[Cha]-NH2; N-terminus assumed; SMILES N=C(N)NCCC[C@H](N)C(=O)NCC(=O)N[C@@H](Cc1ccccc1)C(=O)N[C@@H](CC1CCCCC1)C(N)=O) [Peptide 2]
- Activity [1, 4]: antagonist
- hypoglycaemic effect (reduction of basal blood glucose level) ([2]; listed as Arg-Gly-Phe-Cha): no hypoglycaemic effect
- hypoglycaemic effect (reduction of basal blood glucose level) ([2]; listed as peptide 2): significant hypoglycaemic effects

Substance: Arg-Gly-Phe-Phe-NH2 (RGFF-NH2) [Peptide 1]
- Activity [1, 4]: active
- insulin-potentiating activity on in vitro glycogen synthesis (in words) [1]: stimulated glycogen synthesis
- hypoglycaemic effect (reduction of basal blood glucose level) ([2]; listed as Arg-Gly-Phe-Phe): reduced basal blood glucose levels
- hypoglycaemic effect (reduction of basal blood glucose level) ([2]; listed as peptide 1): significant hypoglycaemic effects

Substance: Arg-Gly-Phe-Tyr-NH2 (RGFY-NH2) [Peptide 21]
- Activity [1, 3]: inactive
- Activity [1, 4]: inactive

Substance: Arg-Gly-Tyr-Phe-NH2 (RGYF-NH2) [Peptide 19]
- Activity [1, 4]: active

Substance: Arg-Leu-Phe-Asp-Asn-Ala (RLFDNA-NH2) [Peptide 5]
- Activity [1, 3]: inactive
- insulin-potentiating activity on in vitro glycogen synthesis (in words) [1]: abolished
- hypoglycaemic effect (reduction of basal blood glucose level) [2]: no hypoglycaemic effect
- insulin-potentiating effect on decreasing blood glucose in IVITT (in words) (normal male Wistar rats; listed as Asn^11-hGH(8-13)): no such effect
- insulin-potentiating effect on decreasing blood glucose in IVITT (in words) (normal male Wistar rats; listed as linear hGH(8-13)): no activity
- Reduction in Blood Glucose (normal male Wistar rats; 15 min): 0.90 ± 0.09 mmol/L
- Reduction in Blood Glucose (normal male Wistar rats; 30 min): 1.01 ± 0.11 mmol/L
- Reduction in Blood Glucose (normal male Wistar rats; 45 min): 1.07 ± 0.15 mmol/L
- Reduction in Blood Glucose (normal male Wistar rats; 60 min): 1.06 ± 0.12 mmol/L

Substance: Arg-Leu-Phe-Asu-Asn-Ala (RLFDNA-NH2) [Peptide 6]
- insulin-potentiating activity on in vitro glycogen synthesis (in words) [1]: diminished insulin-potentiating effect
- hypoglycaemic effect (reduction of basal blood glucose level) [2]: significant hypoglycaemic effects
- hypoglycaemic effect (reduction of basal blood glucose level) ([2]; listed as Asu^11-hGH(8-13) amide): diminished insulin-potentiating effect
- insulin-potentiating effect on decreasing blood glucose in IVITT (in words) (normal male Wistar rats): significant
- insulin-potentiating effect on decreasing blood glucose in IVITT (in words) (normal male Wistar rats; listed as Asu^11-hGH(8-13)): lower potency
- Reduction in Blood Glucose (normal male Wistar rats; 15 min): 0.93 ± 0.17 mmol/L
- Reduction in Blood Glucose (normal male Wistar rats; 30 min): 1.58 ± 0.12 mmol/L
- Reduction in Blood Glucose (normal male Wistar rats; 45 min): 1.50 ± 0.15 mmol/L
- Reduction in Blood Glucose (normal male Wistar rats; 60 min): 1.50 ± 0.19 mmol/L

Substance: Arg-Leu-Phe-Phe-NH2 (RLFF-NH2) [Peptide 4]
- Activity [1, 4]: active

Substance: Arg-β-Ala-Phe-Phe (R[βAla]FF; not fully specified (C-terminus); printed as Arg-β-Ala-Phe-Phe) [Peptide 18]
- Activity [1, 4]: active

Substance: Leu-Ser-Arg-Leu-Gly-Asu-Asn-Ala (LSRLGDNA-NH2; not fully specified; printed as Leu-Ser-Arg-Leu-Gly-Asu-Asn-Ala) [Peptide 11]
- Activity [1, 3]: inactive
- Reduction in Blood Glucose (normal male Wistar rats; 15 min): 0.68 ± 0.05 mmol/L
- Reduction in Blood Glucose (normal male Wistar rats; 30 min): 0.96 ± 0.06 mmol/L
- Reduction in Blood Glucose (normal male Wistar rats; 45 min): 1.08 ± 0.08 mmol/L
- Reduction in Blood Glucose (normal male Wistar rats; 60 min): 1.12 ± 0.06 mmol/L

Substance: Leu-Ser-Arg-Leu-Tyr-Asu-Asn-Ala (LSRLYDNA-NH2; not fully specified; printed as Leu-Ser-Arg-Leu-Tyr-Asu-Asn-Ala) [Peptide 10]
- insulin-potentiating effect on decreasing blood glucose in IVITT (in words) (normal male Wistar rats): significant
- Reduction in Blood Glucose (normal male Wistar rats; 15 min): 1.03 ± 0.10 mmol/L
- Reduction in Blood Glucose (normal male Wistar rats; 30 min): 1.52 ± 0.12 mmol/L
- Reduction in Blood Glucose (normal male Wistar rats; 45 min): 1.62 ± 0.18 mmol/L
- Reduction in Blood Glucose (normal male Wistar rats; 60 min): 1.60 ± 0.34 mmol/L

Substance: Leu-Ser-Gly-Leu-Phe-Asu-Asn-Ala (LSGLFDNA-NH2; not fully specified; printed as Leu-Ser-Gly-Leu-Phe-Asu-Asn-Ala) [Peptide 9]
- Activity [1, 3]: inactive
- Reduction in Blood Glucose (normal male Wistar rats; 15 min): 0.87 ± 0.12 mmol/L
- Reduction in Blood Glucose (normal male Wistar rats; 30 min): 0.80 ± 0.14 mmol/L
- Reduction in Blood Glucose (normal male Wistar rats; 45 min): 0.88 ± 0.15 mmol/L
- Reduction in Blood Glucose (normal male Wistar rats; 60 min): 0.74 ± 0.16 mmol/L

Substance: Leu-Ser-Lys-Leu-Phe-Asu-Asn-Ala (LSKLFDNA-NH2; not fully specified; printed as Leu-Ser-Lys-Leu-Phe-Asu-Asn-Ala) [Peptide 8]
- insulin-potentiating activity on in vitro glycogen synthesis (in words) [1]: active
- insulin-potentiating effect on decreasing blood glucose in IVITT (in words) (normal male Wistar rats): significant
- Reduction in Blood Glucose (normal male Wistar rats; 15 min): 1.08 ± 0.10 mmol/L
- Reduction in Blood Glucose (normal male Wistar rats; 30 min): 1.35 ± 0.14 mmol/L
- Reduction in Blood Glucose (normal male Wistar rats; 45 min): 1.92 ± 0.17 mmol/L
- Reduction in Blood Glucose (normal male Wistar rats; 60 min): 1.78 ± 0.17 mmol/L

Substance: Lys-Gly-Phe-Phe (KGFF-NH2) [Peptide 16]
- Activity [1, 3]: inactive
- insulin-potentiating activity on in vitro glycogen synthesis (in words) [1]: loss of activity

Substance: RG[Cha]F-NH2 [Peptide 20]
- Activity [1, 4]: antagonist

Substance: [Orn]GFF [Peptide 17]
- Activity [1, 3]: inactive
- insulin-potentiating activity on in vitro glycogen synthesis (in words) [1]: loss of activity

Substance: insulin: exogenous insulin tested alone on hemidiaphragm glycogen synthesis (FIG. 1)
- rate of glycogen synthesis ([1]; 0.33 mU/ml insulin alone): 0.52±0.05 μmol/g tissue/hr
- rate of glycogen synthesis ([1]; 1 mU/ml insulin alone): 0.60±0.04 μmol/g tissue/hr
- rate of glycogen synthesis ([1]; 3.33 mU/ml insulin alone): 1.27±0.06 μmol/g tissue/hr
- rate of glycogen synthesis ([1]; 10 mU/ml insulin alone): 1.52±0.07 μmol/g tissue/hr
